This is an account of results in US9260382B2, “Methods of reducing virulence in bacteria” (priority 2010, dated 2016).

For this experiment, the system named is hrpA promoter (T3SS). In words: hrpA promoter-probe phrpA in Erwinia amylovora 273, flow cytometry. The settings on record: Ea273 (phrpA), HIM + 100 μM compound. The class given is cell-based. The procedure:
Wild-type Erwinia amylovora 273 was used in this study. The promoter-probe plasmid phrpA was constructed as follows. The hrpA promoter region of Erwinia amylovora 273 was amplified and cloned into pPROBE-NT to produce PhrpA. Plasmid PhrpA was electroporated into Erwinia amylovora 273. Expression of hrpA was analyzed using a FACS Calibur flow cytometer (BD Biosciences, CA). Wild-type Erwinia amylovora 273 containing phrpA was cultured in a hrp-inducing medium (HIM) containing dimethyl sulfoxide (DMSO; solvent of chemical compounds), or HIM supplemented with 100 μM of each compound, and promoter activity was assessed at 6 h and 9 h by measuring GFP intensity using flow cytometry (Table 19).

For `O=C(O)/C=C/c1cccc(O)c1` [Compound 005, meta-coumaric acid], the “Avg MFI ± SD, hrpA expression” value runs as follows: (6 h) 1212 ± 47.6; (9 h) 1439.1 ± 97.9.
The corresponding values for `O=C(/C=C/c1ccc(O)cc1)NCCO` [Compound 138, N-(2-Hydroxyethyl)-4-hydroxycinnamamide] are 1474.5 ± 30.4 and 1907.0 ± 39.8.
The corresponding values for `O=C(O)CCc1ccccc1` [Compound 008, Hydrocinnamic acid] are 395.9 ± 16.0 and 342.0 ± 11.7.
The corresponding values for `O=C(/C=C/c1ccccc1Cl)NO` [Compound 150, trans-2-Chlorocinnamohydroxamic acid] are 25.9 ± 3.2 and 30.5 ± 3.3.
As to `O=C(O)/C=C/c1ccc(Cl)cc1` [Compound 023, trans-4-Chlorocinnamic acid], the “Avg MFI ± SD, hrpA expression” value was found to be 171.8 ± 7.7 (6 h) and 125.8 ± 3.9 (9 h).
With Benzoic acid [Compound 034], the “Avg MFI ± SD, hrpA expression” value (6 h) stood at 48.1 ± 5.4 and the “Avg MFI ± SD, hrpA expression” value (9 h) is on record as 32.6 ± 1.9.
The corresponding values for `O=C(O)COc1ccccc1` [Compound 009, Phenoxyacetic acid] are 342.7 ± 24.8 and 269.9 ± 15.2.
The corresponding values for `O=C(/C=C/c1ccc(Br)cc1)NO` [Compound 128, trans-4-Bromocinnamohydroxamic acid] are 17.6 ± 2.8 and 5.7 ± 2.2.
For `O=C(O)/C=C/c1ccc(C(=O)Nc2ccccc2)cc1` [Compound 166, trans-4-(Carbo-phenylamide)cinnamic acid] the same measures were 105.0 ± 53.0 and 221.2 ± 22.2.
Turning to `O=C(O)/C=C/c1ccc([N+](=O)[O-])cc1` [Compound 028, trans-4-Nitrocinnamic acid], the “Avg MFI ± SD, hrpA expression” value runs as follows: (6 h) 14.4 ± 16.9; (9 h) 4.0 ± 0.3.
Turning to `O=C(O)/C=C/c1c[nH]cn1` [Compound 014, trans-3-(4-Imidazolyl)acrylic acid], the “Avg MFI ± SD, hrpA expression” value is 874.6 ± 23.1 (6 h) and 839.2 ± 17.6 (9 h).
The corresponding values for `Cc1ccccc1/C=C/C(=O)O` [Compound 018, trans-2-Methylcinnamic acid] are 303.8 ± 8.7 and 262.5 ± 9.3.
The corresponding values for `O=C(O)C#Cc1ccccc1` [Compound 136, Phenylpropiolic acid] are 261.7 ± 1.0 and 307.0 ± 9.3.
For `O=C(O)c1cccc(O)c1` [Compound 145, 3-Hydroxybenzoic acid] the same measures were 559.4 ± 23.6 and 529.9 ± 32.0.
For `Cc1ccc(/C=C/C(=O)O)cc1` [Compound 020, trans-4-Methylcinnamic acid], the “Avg MFI ± SD, hrpA expression” value runs as follows: (6 h) 208.5 ± 2.7; (9 h) 145.4 ± 3.7.
For `O=C(O)[C@@H]1C[C@H]1c1ccccc1` (relative stereo) [Compound 010, trans-2-Phenylcyclopropane-1-carboxylic acid] the same measures were 336.7 ± 28.1 and 293.0 ± 4.7.
On to `COc1ccc(/C=C/C(=O)O)cc1` [Compound 017, trans-4-Methoxycinnamic acid], for which the “Avg MFI ± SD, hrpA expression” value is on record as 132.5 ± 5.5 (6 h) and 76.4 ± 2.7 (9 h).
For `O=C(O)/C=C/c1ccc(C(=O)O)cc1` [Compound 025, trans-4-Carboxycinnamic acid] the same measures were 421.0 ± 10.6 and 496.7 ± 98.9.
For `O=C(/C=C/c1ccc(F)cc1)NO` [Compound 141, trans-4-Fluorocinnamohydroxamic acid] the same measures were 167.6 ± 4.7 and 119.0 ± 7.1.
For `O=C(O)/C=C/c1cccnc1` [Compound 013, trans-3-(3-Pyridyl)acrylic acid] the same measures were 468.3 ± 7.7 and 245.7 ± 3.1.
Turning to `O=C(O)/C=C/c1c[nH]c2ccccc12` [Compound 012, trans-3-Indoleacrylic acid], the “Avg MFI ± SD, hrpA expression” value by setting is: (6 h) 33.7 ± 8.9; (9 h) 47.9 ± 6.9.
For `O=C(/C=C/c1cccc([N+](=O)[O-])c1)NO` [Compound 156, trans-3-Nitrocinnamohydroxamic acid] the same measures were 67.8 ± 17.9 and 99.5 ± 4.9.
